Patent publication EP2030621A1, “Novel substituted pyrimidines as cysteine protease inhibitors” (GLAXO GROUP LIMITED, priority 2007, dated 2009)
pIC50: −log10 of the molar value. Where a name gives a salt, the structure may show the parent alone.

What was measured:
[1] = target: Falcipain-2 (Plasmodium falciparum, UniProt Q8I6U4); test: Falcipain-2 enzymatic assay (fluorogenic peptide substrate, quenched endpoint read); type: biochemical; conditions: parasitic recombinant enzyme, 30 uM H-D-VLR-AFC, pH 5.5, quenched after 60 minutes; read-out: Falcipain-2 (IC50)
Falcipain-2, sequence (Q8I6U4 244-484): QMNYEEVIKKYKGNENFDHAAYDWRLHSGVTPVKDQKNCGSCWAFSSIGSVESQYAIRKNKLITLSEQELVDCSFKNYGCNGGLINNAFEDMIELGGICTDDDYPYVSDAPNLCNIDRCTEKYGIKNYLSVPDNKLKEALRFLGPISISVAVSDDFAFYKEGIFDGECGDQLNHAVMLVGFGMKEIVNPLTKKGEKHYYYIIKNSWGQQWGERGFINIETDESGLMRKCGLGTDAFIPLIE
Procedure: (§1) 1 Determination of Falcipain-2, Falcipain-3, Vivapain-2, Cathepsin K Cathepsin S, Cathepsin L, and Cathepsin B proteolytic catalytic activity
(§2) Assays for Falcipain-2, Faicipain-3, and Vivapain-2 are carried out with parasitic recombinant enzymes. Cathepsins K, S, L, and B are carried out with human recombinant enzymes. Standard assay conditions for the determination of kinetic constants used a fluorogenic peptide substrate, typically H-D-VLR-AFC (Falcipain-2, Falcipain-3, Vivapain-2), Z-FR-AFC (Cathepsin K, L, B), or KQKLR-AMC (Cathepsin S) and are determined in 100 mM sodium acetate, pH 5.5, containing 10 mM DTT and 0.5 mM CHAPS (Falcipain-2, Falcipain-3, Vivapain-2), and 100 mM sodium acetate, pH 5.5, containing 5 mM L-cysteine, 1mM CHAPS and 5mM EDTA (Cathepsin K, L, B), or 50mM MES, pH 6.5, containing 0.5mM CHAPS, 10mM L-CYS, 5mM EDTA (Cathepsin S). Stock substrate solutions are prepared at 20 mM in DMSO. The activity assays contained 30 uM substrate (Falcipain-2, Falcipain-3, Vivapain-2), 20 uM substrate (Cathepsin K), 25uM substrate (Cathepsin B), 5uM substrate (Cathepsin L), and 30uM substrate (Cathepsin S). All assays contained 1% DMSO. […] All assays are conducted at ambient temperature as end point assays being quenched after 60 minutes with the exception of Cathepsin S at 90 minutes, with 16.6 uM E-64 in 1% DMSO. Product formation (AFC or AMC) is determined from fluorescence (excitation at 405nm; emission at 530nm, AFC, or excitation at 360 nm; emission at 460 nm, AMC) monitored with a LJL Aquest (Molecular Devices) fluorescent plate reader. In the case of kinetic reads (used in mechanism of action studies), the reaction is not quenched but is read in the plate reader every 3 minutes for approximately 90 minutes. In addition, the mechanism of action studies for Falcipain-2 utilize Z-LR-AMC as the substrate. Product formation is determined from the fluorescence of AMC, measured with a LJL Acquest (Molecular Devices) fluorescent plate reader (excitation at 360nm; emission at 460nm).
(§3) Potential inhibitors are evaluated using the quenched read (endpoint) method. Assays are carried out in the presence of variable concentrations of test compound. Reactions are initiated by addition of enzyme and substrate to wells containing inhibitor stamped in 100% DMSO. For endpoint assays, the reaction is quenched with the addition of E64. Dose response data is fit to an IC50 curve with preset fitting tools according to equation 1: y = a + (b-a)/(1 + (10^x /10^c ())^d ) [formula] where y is the response at a particular inhibitor concentration x, a is the minimum response value, b is the maximum response value, c is the IC50, and d is the slope of the IC50 curve. […]. For a more direct measurement of the KI and the binding mechanism, we performed mechanism of action studies that included a titration of substrate and inhibitor with a kinetic read. […]

[2] = target: Falcipain-3 (Plasmodium falciparum, UniProt Q8IIL0); test: Falcipain-3 enzymatic assay (fluorogenic peptide substrate, quenched endpoint read); type: biochemical; conditions: parasitic recombinant enzyme, 30 uM H-D-VLR-AFC, pH 5.5, quenched after 60 minutes; read-out: Falcipain-3 (IC50)
Falcipain-3, sequence (Q8IIL0 243-492): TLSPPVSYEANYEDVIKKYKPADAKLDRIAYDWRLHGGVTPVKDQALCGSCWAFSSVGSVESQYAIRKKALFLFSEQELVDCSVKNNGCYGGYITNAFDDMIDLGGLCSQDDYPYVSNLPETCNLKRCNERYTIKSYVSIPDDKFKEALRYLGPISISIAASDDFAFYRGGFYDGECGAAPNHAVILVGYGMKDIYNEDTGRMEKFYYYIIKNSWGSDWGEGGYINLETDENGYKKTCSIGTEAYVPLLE
Procedure: as §1, §2, §3

[3] = system: Plasmodium falciparum parasite; test: Whole cell assay: whole cell activity against the parasite; type: cell-based; conditions: Plasmodium falciparum

SMILES	pIC50 [1]	pIC50 [2]	pIC50 [3]
CC(=O)N1CCC(N(NC(=O)c2ccc(CN3CCN(C)CC3)cc2)c2nc(C#N)ncc2Br)CC1 [Example 37, N'-(1-acetyl-4-piperidinyl)-N'-(5-bromo-2-cyano-4-pyrimidinyl)-4-[(4-methyl-1-piperazinyl)methyl]benzohydrazide trifluoroacetate]	> 9.00	6.82 to 7.82	6.82 to 7.82
CC(C)CCN(C)Cc1ccc(C(=O)NN(c2nc(C#N)ncc2Cl)C2CCCC2)cc1 [Example 63, N'-(5-chloro-2-cyano-4-pyrimidinyl)-N'-cyclopentyl-4-{[methyl(3-methylbutyl)amino]methyl}benzohydrazide trifluoroacetate]	> 9.00	7.82 to 8.60	7.82 to 8.60
